Test results reported in patent publication US6420455B1, “Antimicrobial composition containing photosensitizers articles, and methods of use” (3M Innovative Properties Company, priority 1999, dated 2002).

Assays:
Experiment in all cases: Zone of inhibition of dye-dipped filter disks on agar lawn
[1] = tested on: Staph. Aureus; assay type: cell-based, Staphylococcus aureus; conditions: for Zone of Inhibition in Dark: 10 mg/ml dye in water on 6-mm disk; for Zone of Inhibition in Room Light (after 30 min.) / Zone of Inhibition in Room Light, 15 Minutes / Zone of Inhibition in Room Light Overnight: 10 mg/ml dye on 6-mm disk
Description: (§1) The procedure used for testing for antibacterial and antifungal activity is as follows.
Bacteria or fungi stock was plated onto Trypticase Soy Broth (TSB) agar (Becton Dickinson, Cockeysville, Md.) and incubated at 37° C. overnight, at which time several colonies were transferred to phosphate buffered saline (PBS) to give a solution with final concentration of 10^6 bacteria/ml or fungi/ml, as determined by comparison of turbidity with McFarland standards. Subsequently, a lawn of the bacterium or fungus was prepared by triple swabbing a Trypticase Soy broth agar plate (prepared using TSB and agar according to label instructions). Then, 6-mm diameter paper filter disks were dipped into one of the dyed solutions, blotted to remove the excess solution, and placed on the agar plates. […]
(§2) The plates were removed from the incubator and inspected for clear areas surrounding treated 6-mm filter disks that are indicative of prevention of growth of bacteria. The diameter of each clear area was measured and recorded and compared with controls.

[2] = tested on: E. faecium; assay type: cell-based, Enterococcus faecium; conditions: for Zone of Inhibition in Dark: 10 mg/ml dye on 6-mm disk
Description: as §1
(§3) Bacteria or fungi stock was plated onto Trypticase Soy Broth (TSB) agar (Becton Dickinson, Cockeysville, Md.) and incubated at 37° C. overnight, at which time several colonies were transferred to phosphate buffered saline (PBS) to give a solution with final concentration of 10^6 bacteria/ml or fungi/ml, as determined by comparison of turbidity with McFarland standards. Subsequently, a lawn of the bacterium or fungus was prepared by triple swabbing a Trypticase Soy broth agar plate (prepared using TSB and agar according to label instructions). Then, 6-mm diameter paper filter disks were dipped into one of the dyed solutions, blotted to remove the excess solution, and placed on the agar plates. Each plate was then either kept in the dark (control) or irradiated for 15 minutes in room light or for overnight in room light before incubation at 37° C. for 24 hours.
as §2

[3] = tested on: C. albicans; assay type: cell-based, Candida albicans; conditions: for Zone of Inhibition in Dark: 10 mg/ml dye on 6-mm disk
Description: as §1, §3, §2

[4] = tested on: P. aeruginosa; assay type: cell-based, Pseudomonas aeruginosa; conditions: for Zone of Inhibition in Dark: 10 mg/ml dye on 6-mm disk
Description: as §1, §3, §2

[5] = tested on: Salmonella spp.; assay type: cell-based; conditions: for Zone of Inhibition in Dark: 10 mg/ml dye on 6-mm disk
Description: as §1, §3, §2

[6] = tested on: E. coli; assay type: cell-based, Escherichia coli; conditions: for Zone of Inhibition in Dark: 10 mg/ml dye on 6-mm disk
Description: as §1, §3, §2

SMILES | Zone of Inhibition in Dark [1] [mm] | Zone of Inhibition in Room Light (after 30 min.) [1] [mm] | Zone of Inhibition in Room Light, 15 Minutes [1] [mm] | Zone of Inhibition in Room Light Overnight [1] [mm] | Zone of Inhibition in Dark [2] [mm] | Zone of Inhibition in Room Light, 15 Minutes [2] [mm] | Zone of Inhibition in Room Light Overnight [2] [mm] | Zone of Inhibition in Dark [3] [mm] | Zone of Inhibition in Room Light, 15 Minutes [3] [mm] | Zone of Inhibition in Room Light Overnight [3] [mm] | Zone of Inhibition in Dark [4] [mm] | Zone of Inhibition in Room Light, 15 Minutes [4] [mm] | Zone of Inhibition in Room Light Overnight [4] [mm] | Zone of Inhibition in Dark [5] [mm] | Zone of Inhibition in Room Light, 15 Minutes [5] [mm] | Zone of Inhibition in Room Light Overnight [5] [mm] | Zone of Inhibition in Dark [6] [mm] | Zone of Inhibition in Room Light, 15 Minutes [6] [mm] | Zone of Inhibition in Room Light Overnight [6] [mm]
CN(C)c1ccc(C(=C2C=CC(=[N+](C)C)C=C2)c2ccc(N(C)C)cc2)cc1 [Crystal Violet] | 30 | 30 |  |  |  |  |  |  |  |  |  |  |  |  |  |  |  |  | 
CN(C)c1ccc2nc3ccc(=[N+](C)C)cc-3sc2c1 [Methylene Blue] | 18 |  | 20 | 28 | 16 | 16 | 19 | 12 | 12 | 18 | 0 | 0 | 0 | 0 | 0 | 0 | 8 | 0 | 0
O=C([O-])c1c(Cl)c(Cl)c(Cl)c(Cl)c1-c1c2cc(I)c(=O)c(I)c-2oc2c(I)c([O-])c(I)cc12.[Na+].[Na+] [Rose Bengal disodium salt] | 23 |  | 21 | 36 | 19 | 19 | 34 | 0 | 0 | 13 | 0 | 0 | 13 | 7 | 8 | 19 | 0 | 0 | 11
Cc1cc2nc3ccc(N(C)C)cc3[s+]c2cc1N.[Cl-] [Toluidine Blue O] | 20 | 19 |  |  |  |  |  |  |  |  |  |  |  |  |  |  |  |  | 
